Structures are written as SMILES.

The target in assay [1] is T1, Neutrophil elastase (Homo sapiens, UniProt P08246).
T1 sequence (P08246 whole entry): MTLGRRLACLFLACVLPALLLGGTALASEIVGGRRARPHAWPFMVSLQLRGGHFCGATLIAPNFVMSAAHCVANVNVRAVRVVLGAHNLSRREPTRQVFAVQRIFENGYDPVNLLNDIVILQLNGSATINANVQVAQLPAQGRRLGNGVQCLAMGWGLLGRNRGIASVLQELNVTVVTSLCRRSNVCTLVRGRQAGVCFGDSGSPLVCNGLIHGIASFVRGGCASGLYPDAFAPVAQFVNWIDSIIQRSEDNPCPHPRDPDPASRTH
Kind of assay: Inhibitory concentration against human neutrophil elastase (HNE); No inhibition.

Assay [2] addresses T2, Chymotrypsin-like elastase family member 2A (Sus scrofa, UniProt P08419).
T2 sequence (P08419 whole entry): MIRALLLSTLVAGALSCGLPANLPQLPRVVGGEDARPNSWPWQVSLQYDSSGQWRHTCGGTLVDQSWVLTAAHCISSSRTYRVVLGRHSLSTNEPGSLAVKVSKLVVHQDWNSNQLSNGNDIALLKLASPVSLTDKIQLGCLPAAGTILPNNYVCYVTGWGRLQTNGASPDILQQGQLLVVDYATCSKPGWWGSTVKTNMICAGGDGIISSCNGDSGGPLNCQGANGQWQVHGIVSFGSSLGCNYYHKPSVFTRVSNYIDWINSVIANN
Kind of assay: Inhibitory concentration against porcine pancreatic elastase (PPE); No inhibition.

Assay [3] addresses T1, Neutrophil elastase. Nature of the assay: Inhibitory concentration against human neutrophil elastase (HNE).

With `CCC(C)[C@H]1C(=O)N(S(=O)(=O)c2ccc(C)cc2)CCN1S(=O)(=O)c1ccc(C)cc1` (stereo partly specified), the IC50 entry (against Neutrophil elastase [1]; in assay [2]) was “Not Active” each time. In turn, `Cc1ccc(S(=O)(=O)N2CCN(Cc3ccccc3)C(=O)[C@@H]2CC(C)C)cc1` returned an IC50 against Neutrophil elastase [3] of 28 µM. Take `CCC(C)[C@H]1C(=O)NCCN1C(=O)OC(C)(C)C` (stereo partly specified): the IC50 entry (against Neutrophil elastase [1]; in assay [2]) was “Not Active” in each case. With `CCC(C)[C@@H]1NCCN(Cc2ccccc2)C1=O` (stereo partly specified), the IC50 entry (at Neutrophil elastase [1]; in assay [2]) was “Not Active” throughout.

With `CC(C)C[C@@H]1NCCNC1=O`, the IC50 entry (against Neutrophil elastase [1]; in assay [2]) was “Not Active” in each case. For `CCC(C)[C@@H]1NCCNC1=O` (stereo partly specified), the IC50 entry (against Neutrophil elastase [1]; in assay [2]) was “Not Active” each time.

Turning to `CC(C)C[C@@H]1NCCN(Cc2ccccc2)C1=O`, the IC50 result (on Neutrophil elastase [1]; in assay [2]) was “Not Active” in each case.

Turning to `CCC(C)[C@H]1C(=O)N(Cc2ccccc2)CCN1S(=O)(=O)c1ccc(C)cc1` (stereo partly specified), the IC50 result against Neutrophil elastase [1] is reported as “Not Active”.

Take `CC(C)C[C@H]1C(=O)NCCN1C(=O)OC(C)(C)C`: the IC50 entry (against Neutrophil elastase [1]; in assay [2]) was “Not Active” each time.

Source of the values: ChEMBL document CHEMBL1136514, “Synthesis and evaluation of delta-lactams (piperazones) as elastase inhibitors” (Bioorg Med Chem Lett, 2003).
